# Test results reported in patent publication US8030344B2, “Inhibitors of histone deacetylase” (MethylGene Inc., priority 2007, dated 2011).
# Key:
# HMEC cells = assay: MTT assay on HMEC cells; format: cell-based; details: similar MTT assay on HMEC cells
# Experimental: (§1) HCT116 cells (2000/well) are plated into 96-well tissue culture plates one day before compound treatment. Representative compounds at various concentrations were added to the cells. The cells are incubated for 72 hours at 37° C. in 5% CO2 incubator. MTT (3-[4,5-dimethylthiazol-2-yl]-2,5 diphenyl tetrazolium bromide, Sigma) is added at a final concentration of 0.5 mg/ml and incubated with the cells for 4 hours before one volume of solubilization buffer (50% N,N-dimethylformamide, 20% SDS, pH 4.7) is added onto the cultured cells. After overnight incubation, solubilized dye is quantified by calorimetric reading at 570 nM using a reference at 630 nM. OD values are converted to cell numbers according to a standard growth curve of the relevant cell line. The concentration which reduces cell numbers to 50% of that of solvent treated cells is determined as MTT IC50. A similar assay is performed on HMEC cells.
# HDAC-2 = HDAC-2 (Homo sapiens, UniProt Q92769); assay: Similar assay measuring HDAC-2 inhibitory activity; format: biochemical
# Experimental: (§2) The following protocol is used to assay the compounds of the invention. In the assay, the buffer used is 25 mM HEPES, pH 8.0, 137 mM NaCl, 2.7 mM KCl, 1 mM MgCl2 and the substrate is Boc-Lys(Ac)-AMC in a 50 mM stock solution in DMSO. The enzyme stock solution is 4.08 μg/mL in buffer.
# (§3) The compounds are pre-incubated (2 μl in DMSO diluted to 13 μl in buffer for transfer to assay plate) with enzyme (20 μl of 4.08 μg/ml) for 10 minutes at room temperature (35 μl pre-incubation volume). The mixture is pre-incubated for 5 minutes at room temperature. The reaction is started by bringing the temperature to 37° C. and adding 15 μl substrate. Total reaction volume is 50 μl. The reaction is stopped after 20 minutes by addition of 50 μl developer, prepared as directed by Biomol (Fluor-de-Lys developer, Cat. # KI-105). A plate is incubated in the dark for 10 minutes at room temperature before reading (λEx=360 nm, λEm=470 nm, Cutoff filter at 435 nm). Similar assays are performed to measure HDAC-2 inhibitory activity
# HCT116 cells = assay: MTT assay on HCT116 cells; format: cell-based; details: 72 hours incubation, concentration reducing cell numbers to 50% of solvent treated cells
# Experimental: as §1
# HDAC-1 = HDAC-1 (Homo sapiens, UniProt Q13547); assay: Inhibition of histone deacetylase enzymatic (HDAC-1) activity, Boc-Lys(Ac)-AMC fluorescence assay; format: biochemical
# Experimental: Inhibition of Histone Deacetylase Enzymatic (HDAC-1) Activity
# as §2, §3
# Sequence of HDAC-1 (Q13547 whole entry): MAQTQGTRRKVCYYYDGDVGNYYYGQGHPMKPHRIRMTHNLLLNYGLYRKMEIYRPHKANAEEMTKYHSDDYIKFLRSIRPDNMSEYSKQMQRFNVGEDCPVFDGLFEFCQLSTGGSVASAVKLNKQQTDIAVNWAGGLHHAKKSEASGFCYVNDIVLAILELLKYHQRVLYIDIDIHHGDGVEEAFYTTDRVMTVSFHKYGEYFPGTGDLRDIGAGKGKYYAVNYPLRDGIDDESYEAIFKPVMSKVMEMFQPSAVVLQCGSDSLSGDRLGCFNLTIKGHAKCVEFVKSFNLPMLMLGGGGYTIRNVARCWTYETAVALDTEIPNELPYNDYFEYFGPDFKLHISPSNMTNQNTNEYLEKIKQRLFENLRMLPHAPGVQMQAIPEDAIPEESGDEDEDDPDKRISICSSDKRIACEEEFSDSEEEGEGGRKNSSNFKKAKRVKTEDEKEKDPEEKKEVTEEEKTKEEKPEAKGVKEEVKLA
# Sequence of HDAC-2 (Q92769 whole entry): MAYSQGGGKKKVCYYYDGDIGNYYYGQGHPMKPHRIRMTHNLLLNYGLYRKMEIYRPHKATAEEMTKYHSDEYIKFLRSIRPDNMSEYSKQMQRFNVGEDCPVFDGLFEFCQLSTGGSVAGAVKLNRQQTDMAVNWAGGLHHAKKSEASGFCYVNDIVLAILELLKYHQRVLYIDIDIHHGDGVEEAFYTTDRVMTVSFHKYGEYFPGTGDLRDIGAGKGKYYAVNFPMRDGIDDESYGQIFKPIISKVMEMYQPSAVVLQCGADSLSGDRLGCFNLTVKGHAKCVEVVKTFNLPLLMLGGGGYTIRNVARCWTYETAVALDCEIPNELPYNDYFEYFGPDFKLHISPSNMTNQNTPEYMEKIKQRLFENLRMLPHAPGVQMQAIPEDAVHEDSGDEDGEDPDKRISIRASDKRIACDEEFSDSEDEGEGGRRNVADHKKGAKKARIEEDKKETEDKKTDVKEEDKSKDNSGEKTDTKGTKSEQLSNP
Molecule,IC50 (HDAC-2) [nM],"IC50 (HCT116 cells; Homo sapiens, HCT-116) [nM]",IC50 (HDAC-1) [nM],IC50 (HCT116 cells) [nM],IC50 (HMEC cells; Homo sapiens) [nM],IC50 (HMEC cells) [nM]
"Nc1ccccc1NC(=O)c1ccc(N2CC[C@H](NC(=O)OCc3cccnc3)C2)cc1 [Compound 127, ((S)-Pyridin-3-ylmethyl-1-(4-(2-aminophenylcarbamoyl)phenyl)pyrrolidin-3-yl carbamate]",≤ 5000,≤ 5000,≤ 1000,–,> 50000,–
"Nc1ccccc1NC(=O)c1ccc(N2CC[C@H](NC(=O)NCc3cccnc3)C2)cc1 [Compound 128, (S)-N-(2-Aminophenyl)-4-(3-(3-(pyridin-3-ylmethyl)ureido)pyrrolidin-1-yl)benzamide]",≤ 1000,≤ 5000,≤ 5000,–,≤ 50000,–
(S)-Methyl 1-(5-(2-aminophenyl carbamoyl)pyrimidin-2-yl) pyrrolidin-3-yl carbamate [Compound 152],–,–,≤ 1000,≤ 10000,–,–
COCCOC(=O)N[C@@H]1CCN(c2ccc(C(=O)Nc3ccccc3N)cc2)C1 [Compound 130],≤ 5000,≤ 5000,≤ 5000,–,–,–
"Nc1ccccc1NC(=O)c1ccc(N2CC[C@H](NC(=O)OCc3ccccn3)C2)cc1 [Compound 143, (S)-Pyridin-2-ylmethyl 1-(4-(2-aminophenylcarbamoyl)phenyl)pyrrolidin-3-yl carbamate]",≤ 500,≤ 1000,≤ 500,–,≤ 50000,–
"CN(C)CCCOC(=O)N[C@H]1CCN(c2ccc(C(=O)Nc3ccccc3N)cc2)C1 [Compound 144, (S)-3-(Dimethylamino)propyl 1-(4-(2-aminophenylcarbamoyl)phenyl)pyrrolidin-3-yl carbamate]",≤ 500,–,≤ 500,≤ 1000,–,–
"CN1CC[C@@H](OC(=O)N[C@H]2CCN(c3ccc(C(=O)Nc4ccccc4N)cc3)C2)C1 [Compound 146, (R)-1-Methylpyrrolidin-3-yl (S)-1-(4-(2-aminophenylcarbamoyl)phenyl)pyrrolidin-3-yl carbamate]",≤ 500,≤ 5000,≤ 500,–,–,–
"COCCOC(=O)N[C@H]1CCN(c2ncc(C(=O)Nc3ccccc3N)cn2)C1 [Compound 151, (S)-2-Methoxyethyl 1-(5-(2-aminophenylcarbamoyl)pyrimidin-2-yl)pyrrolidin-3-ylcarbamate]",–,≤ 50000,≤ 1000,–,–,–
"CN(C)[C@H]1CCN(c2ccc(C(=O)Nc3ccccc3N)cc2)C1 [Compound 165, (S)-N-(2-Aminophenyl)-4-(3-(dimethylamino)pyrrolidin-1-yl)benzamide]",≤ 5000,–,≤ 1000,–,–,–
"Nc1ccccc1NC(=O)c1ccc(N2CC[C@H](O)C2)cc1 [Compound 160, (S)-N-(2-Aminophenyl)-4-(3-hydroxypyrrolidin-1-yl)benzamide]",≤ 1000,–,≤ 1000,–,–,–
"COCCOC(=O)N[C@H]1CCN(c2ccc(C(=O)Nc3ccccc3N)cn2)C1 [Compound 154, (S)-2-Methoxyethyl 1-(5-(2-aminophenylcarbamoyl)pyridin-2-yl)pyrrolidin-3-ylcarbamate]",≤ 5000,≤ 5000,≤ 500,–,–,–
"COCCOC(=O)N[C@H]1CCN(c2ccc(C(=O)Nc3ccccc3N)cc2)C1 [Compound 129, (S)-2-Methoxyethyl-1-(4-(2-aminophenylcarbamoyl)phenyl)pyrrolidin-3-yl carbamate]",–,–,–,≤ 1000,–,≤ 50000
"Nc1ccccc1NC(=O)c1ccc(N2CC[C@H](NC(=O)OCCN3CCOCC3)C2)cc1 [Compound 195, (S)-2-morpholinoethyl 1-(4-(2-aminophenylcarbamoyl)-phenyl)pyrrolidin-3-ylcarbamate]",≤ 1000,≤ 5000,≤ 500,–,–,–

# Second part, led by results:
IC50 (HDAC-2) [nM],"IC50 (HCT116 cells; Homo sapiens, HCT-116) [nM]",IC50 (HDAC-1) [nM],IC50 (HCT116 cells) [nM],Molecule,IC50 (HMEC cells; Homo sapiens) [nM],IC50 (HMEC cells) [nM]
≤ 5000,≤ 5000,≤ 500,–,"Nc1ccccc1NC(=O)c1ccc(N2CC[C@H](OC(=S)NCCN3CCOCC3)C2)cc1 [Compound 163, (S)-O-1-(4-(2-Aminophenylcarbamoyl)phenyl)pyrrolidin-3-yl 2-morpholinoethylcarbamothioate]",≤ 50000,–
≤ 5000,≤ 1000,≤ 500,–,"Nc1ccccc1NC(=O)c1ccc(N2CC[C@H](NC(=S)NCc3cccnc3)C2)cc1 [Compound 131, (S)-N-(2-Aminophenyl)-4-(3-(3-(pyridin-3-ylmethyl)thioureido)pyrrolidin-1-yl)benzamide]",–,–
≤ 1000,≤ 1000,≤ 500,–,"CCOC(=O)N[C@H]1CCN(c2ccc(C(=O)Nc3ccccc3N)cn2)C1 [Compound 156, (S)-Ethyl 1-(5-(2-aminophenylcarbamoyl)pyridin-2-yl)pyrrolidin-3-ylcarbamate]",≤ 50000,–
≤ 5000,≤ 500,≤ 500,–,"CC(C)COC(=O)N[C@H]1CCN(c2ccc(C(=O)Nc3ccccc3N)cc2)C1 [Compound 123, (S)-Isobutyl 1-(4-(2-aminophenylcarbamoyl)phenyl)pyrrolidin-3-yl carbamate]",≤ 50000,–
≤ 500,≤ 1000,≤ 100,–,"Nc1ccccc1NC(=O)c1ccc(N2CC[C@H](NC(=O)OCc3ccncc3)C2)cc1 [Compound 142, (S)-Pyridin-4-ylmethyl 1-(4-(2-aminophenylcarbamoyl)phenyl)pyrrolidin-3-yl carbamate]",≤ 50000,–
≤ 500,≤ 5000,≤ 500,–,"COC(=O)N(Cc1cccnc1)[C@H]1CCN(c2ccc(C(=O)Nc3ccccc3N)cc2)C1 [Compound 196, (S)-methyl 1-(4-(2-aminophenylcarbamoyl)phenyl)-pyrrolidin-3-yl(pyridin-3-ylmethyl)carbamate]",–,–
≤ 100,–,≤ 500,–,"Nc1ccccc1NC(=O)c1ccc(N2CC[C@H](NC(=O)OCc3ccccc3)C2)cc1 [Compound 124, (S)-Benzyl 1-(4-(2-aminophenylcarbamoyl)phenyl)pyrrolidin-3-yl carbamate]",≤ 5000,–
≤ 500,≤ 1000,≤ 500,–,"CC(C)(C)OC(=O)N[C@H]1CCN(c2ccc(C(=O)Nc3ccccc3N)cc2)C1 [Compound 122, (S)-tert-Butyl 1-(4-(2-aminophenylcarbamoyl)phenyl)pyrrolidin-3-yl carbamate]",≤ 50000,–
≤ 500,≤ 500,≤ 100,–,"Nc1ccccc1NC(=O)c1ccc(N2CC[C@H](NC(=O)OCc3ccoc3)C2)cc1 [Compound 145, (S)-Furan-3-ylmethyl 1-(4-(2-aminophenylcarbamoyl)phenyl) pyrrolidin-3-yl carbamate]",≤ 50000,–
≤ 500,≤ 1000,≤ 500,–,"COc1cc(CN(C(=O)OCc2ccccc2)[C@H]2CCN(c3ccc(C(=O)Nc4ccccc4N)cc3)C2)cc(OC)c1OC [Compound 197, (S)-benzyl 1-(4-(2-aminophenylcarbamoyl)phenyl)-pyrrolidin-3-yl(3,4,5-trimethoxybenzyl)carbamate]",> 50000,–
≤ 1000,–,≤ 500,–,"CC(=O)O[C@H]1CCN(c2ccc(C(=O)Nc3ccccc3N)cc2)C1 [Compound 159, (S)-1-(4-(2-Aminophenylcarbamoyl)phenyl)pyrrolidin-3-yl acetate]",–,–
≤ 5000,≤ 5000,≤ 500,–,"CCNC(=O)O[C@H]1CCN(c2ccc(C(=O)Nc3ccccc3N)cc2)C1 [Compound 162, (S)-1-(4-(2-Aminophenylcarbamoyl)phenyl)pyrrolidin-3-yl ethyl carbamate]",> 50000,–
≤ 500,–,≤ 500,–,"COC(=O)N[C@H]1CCN(c2ccc(C(=O)Nc3ccccc3N)cc2)C1 [Compound 120, (S)-Methyl 1-(4-(2-aminophenylcarbamoyl)phenyl)pyrrolidin-3-yl carbamate]",> 50000,–
≤ 500,≤ 500,≤ 100,–,"Nc1ccccc1NC(=O)c1ccc(N2CC[C@H](NC(=O)OCC3CC3)C2)cc1 [Compound 199, (S)-cyclopropylmethyl 1-(4-(2-aminophenylcarbamoyl)phenyl)-pyrrolidin-3-ylcarbamate]",≤ 50000,–
≤ 500,–,≤ 100,–,"Nc1ccccc1NC(=O)c1ccc(N2CC[C@H](NC(=O)OCC3c4ccccc4-c4ccccc43)C2)cc1 [Compound 201, (S)-(9H-fluoren-9-y)methyl 1-(4-(2-aminophenylcarbamoyl)-phenyl)pyrrolidin-3-ylcarbamate]",–,–
